Measurements published in US6458580B1, “Fungal sulphur source and method of using the same” (Commonwealth Scientific and Industrial Research Organisation, priority 1997, dated 2002).
Values joined by “and” are separate entries in the source; they are usually repeats but may differ in a detail not shown here. Equal entries are not always repeated.

What was measured:
[1] = system: Neocallimastix isolates LM1 and TGB1; Piromyces isolates SM1, CS15 and TZB2; experiment: In vitro growth of selected fungal isolates at different doses of MPA; type: cell-based; conditions: MPA 0-1.6 mM, media with 0.5% CHO, FIGS. 2a and 2b
Procedure: Five isolates were recovered in standard media from cryopreservation and one isolate was obtained from the culture collection. Table 2 below indicates nature of isolates.
Each isolate was transferred from standard media to a modification of the low sulphur media described in Example 1. Carbohydrates (glucose+cellobiose) were added to give either 0.2% (in subculture phase ) or 0.5% (in test phase)
. Triplicate tubes of the three concentrations were inoculated with each isolate and after 3-4 days subcultured using the tubes with the best apparent growth. […] This was to be the final assessment however as some growth was obtained in the 0 controls so all tubes were subcultured again into the same type of media. After a weeks incubation growth was determined by the decrease in media pH as described in Example 1.

[2] = Effect of infusion on feed intake and digestibility; type: in vivo, sheep; conditions: for Digested DM, MPA / Digestibility (% DM), MPA / Intake DM, MPA: MPA infused at 192 mg Sulphur/sheep/day; for Digested DM, MPA / Digestibility (% DM), MPA / Intake DM, MPA / Digested DM, % (+) / Digestibility, % (+) / Intake DM, % (+) increase after infusion of MPA: individual sheep and Aver. n = 13; for Digested DM, % (+) / Digestibility, % (+) / Intake DM, % (+) increase after infusion of MPA: versus control period
Procedure: Feed was prepared as previously described (see example 4). Initially 22 sheep were fed 1 kg of alkali straw/day in the animal house for 4 days to select out sheep not eating the diet. 19 sheep were weighted and transferred to metabolism cages and feed the alkali straw diet ad-lib. Sheep were fed and on the following day the feed refusal weighted and if less then 100 g remained a further 100 g was fed; if 100-200g of feed remained the sheep was given the same amount of feed; if over 200 g of feed was left the sheep was given 100 g less feed. Over the following week another 6 sheep were moved out of the experiment (usually due to very low or erratic intakes). […] After 14 days infusion the collection period of 7 days commenced. Feed refusals were weighted, recorded, and a sample of up to 200 g/day pooled for subsequent analyses. Spilt feed was collected daily, weighted, recorded, and discarded. Faeces were collected with separators that excluded urine. The faeces were weighed and sub-sampled and pooled for subsequent analyses. Pooled faeces and feed were stored at −20° C. and then dried in a hot air oven (faeces were initially dried at 70° C.) at 100° C. cooled and weighted to determine dry weight (DM). Following the last sampling the infusion was stopped in the first group of sheep and on the following day the infusion treatment was begun in the other group of seven sheep. The second period (the crossover) was conducted in the same way as the first period with the same samples being taken at the same times.

[3] = system: Fungal Zoospores; experiment: Effect of infusion on fungal zoospores in rumen fluid; type: in vivo, sheep; conditions: for Fungal Zoospores, MPA: MPA infused at 192 mg Sulphur/sheep/day; for Fungal Zoospores, MPA / Fungal Zoospores, log (+): log10 increase after infusion of MPA: individual sheep and Aver. n = 13; for Fungal Zoospores, log (+): log10 increase after infusion of MPA: versus control period
Procedure: Feed was prepared as previously described (see example 4). Initially 22 sheep were fed 1 kg of alkali straw/day in the animal house for 4 days to select out sheep not eating the diet. 19 sheep were weighted and transferred to metabolism cages and feed the alkali straw diet ad-lib. Sheep were fed and on the following day the feed refusal weighted and if less then 100 g remained a further 100 g was fed; if 100-200g of feed remained the sheep was given the same amount of feed; if over 200 g of feed was left the sheep was given 100 g less feed. Over the following week another 6 sheep were moved out of the experiment (usually due to very low or erratic intakes). […] After 14 days infusion the collection period of 7 days commenced. At the end of the collection period samples of rumen digesta were taken for microbiology and other analyses. Rumen fluid was collected and fungal zoospores and total bacteria assessed as described in example 4 (the total bacteria were assessed on the same medium but without antibiotics). Cellulolytic bacteria were assessed by a most probable number count. Rumen fluid was serially diluted and subsamples of each dilution inoculated into 5 culture tubes containing an anaerobic medium containing rumen fluid and strips of filter paper. After incubation the presence of cellulolytic bacteria was detected by degradation of the paper and the numbers of positive tubes compared to tables to give a number of these bacteria in the original sample. Following the last sampling the infusion was stopped in the first group of sheep and on the following day the infusion treatment was begun in the other group of seven sheep. The second period (the crossover) was conducted in the same way as the first period with the same samples being taken at the same times. The number of zoospores in samples of strained ruminal fluid can be used to follow zoosporogenesis in the rumen and it provides a relative estimate of the size of the anaerobic fungal population. (1) Strain a sample of ruminal digesta through an open weave cloth, and collect the filtered fluid in a CO2-filled flask. (2) Serially dilute the fluid ten-fold in anaerobic dilution solution (ADS) to a final dilution of 10^−3. To do this, transfer 1 ml volumes using 1 ml disposable sterile syringes fitted with sterile 23 gauge (0.65 mm) needles to tubes containing 9 ml ADS, starting with fluid to form the 10^−1 dilution. Use a clean syringe at each dilution step. (3) Using a 1 ml syringe (and 23 ga. needle, as before) inoculate three roll tubes each with 0.2 ml of 10^−3 dilution. Immediately roll these tubes horizontally on ice until the agar sets. With the same syringe, inoculate three more roll tubes with 0.2 ml of 10^−2 dilution and roll them. Repeat with 10^−1 dilution and finally with undiluted fluid, if appropriate. (4) Incubate the roll tubes vertically at 39° C. for 5 d.

[4] = system: Cellutolytic Bacteria; experiment: Effect of infusion on cellulolytic bacteria in rumen fluid (most probable number); type: in vivo; parameters: Cellutolytic Bacteria, MPA: unit not given here; conditions: individual sheep and Aver. n = 13; for Cellutolytic Bacteria, MPA: MPA infused at 192 mg Sulphur/sheep/day; for Cellutolytic Bacteria, log (+): versus control period
Procedure: Feed was prepared as previously described (see example 4). Initially 22 sheep were fed 1 kg of alkali straw/day in the animal house for 4 days to select out sheep not eating the diet. 19 sheep were weighted and transferred to metabolism cages and feed the alkali straw diet ad-lib. Sheep were fed and on the following day the feed refusal weighted and if less then 100 g remained a further 100 g was fed; if 100-200g of feed remained the sheep was given the same amount of feed; if over 200 g of feed was left the sheep was given 100 g less feed. Over the following week another 6 sheep were moved out of the experiment (usually due to very low or erratic intakes). […] After 14 days infusion the collection period of 7 days commenced. At the end of the collection period samples of rumen digesta were taken for microbiology and other analyses. Rumen fluid was collected and fungal zoospores and total bacteria assessed as described in example 4 (the total bacteria were assessed on the same medium but without antibiotics). Cellulolytic bacteria were assessed by a most probable number count. Rumen fluid was serially diluted and subsamples of each dilution inoculated into 5 culture tubes containing an anaerobic medium containing rumen fluid and strips of filter paper. After incubation the presence of cellulolytic bacteria was detected by degradation of the paper and the numbers of positive tubes compared to tables to give a number of these bacteria in the original sample. Following the last sampling the infusion was stopped in the first group of sheep and on the following day the infusion treatment was begun in the other group of seven sheep. The second period (the crossover) was conducted in the same way as the first period with the same samples being taken at the same times.

[5] = 192 mg Sulphur/day/sheep, with the exception of one animal

O=C(O)CCS [MPA, 3-mercaptopropanoic acid]
growth response of sheep versus non-sheep isolates [1]: no clear difference between the sheep and non-sheep isolates
response in digestive performance to infusion [2, 5]: strong, positive, response
Digested DM, MPA ([2]; Table 4): 357.26 g/day and 603.65 g/day and 558.00 g/day and 518.94 g/day and 806.76 g/day and 603.24 g/day and 630.64 g/day and 662.31 g/day and 673.01 g/day and 657.21 g/day and 714.69 g/day and 347.27 g/day and 414.97 g/day
Digestibility (% DM), MPA ([2]; Table 4): 50.799 % DM and 51.891 % DM and 45.708 % DM and 52.812 % DM and 58.076 % DM and 53.589 % DM and 46.808 % DM and 51.433 % DM and 53.840 % DM and 51.933 % DM and 48.119 % DM and 54.648 % DM and 51.522 % DM
Intake DM, MPA ([2]; Table 4): 703 g/day and 1163 g/day and 1221 g/day and 983 g/day and 1389 g/day and 1126 g/day and 1347 g/day and 1288 g/day and 1250 g/day and 1265 g/day and 1485 g/day and 635 g/day and 805 g/day
Digested DM, MPA ([2]; Table 4, mean of 13 sheep): 581 g/day
Digestibility (% DM), MPA ([2]; Table 4, mean of 13 sheep): 51.6 % DM
Intake DM, MPA ([2]; Table 4, mean of 13 sheep): 1128 g/day
Digested DM, % (+) ([2]; Table 4): 38.13% and 51.61% and 32.51% and 37.28% and 41.04% and 36.94% and 24.76% and 17.23% and 46.34% and 40.49% and 9.57% and 38.47% and 63.31%
Digestibility, % (+) ([2]; Table 4): 5.019% and 7.795% and 2.610% and 1.453% and 5.112% and 7.462% and 2.544% and 0.444% and 2.855% and 4.777% and 0.002% and 7.459% and 7.799%
Intake DM, % (+) increase after infusion of MPA ([2]; Table 4): 24.5% and 28.8% and 24.9% and 33.5% and 28.6% and 17.9% and 18.0% and 16.2% and 38.6% (2×) and 27.5% and 9.6% and 19.6%
Digested DM, % (+) ([2]; Table 4, mean of 13 sheep): 36.75%
Digestibility, % (+) ([2]; Table 4, mean of 13 sheep): 4.26%
Intake DM, % (+) increase after infusion of MPA ([2]; Table 4, mean of 13 sheep): 25.1%
Intake DM, MPA ([2]; Table 5): 805 g/day and 703 g/day and 1163 g/day and 1221 g/day and 983 g/day and 1389 g/day and 1126 g/day and 1347 g/day and 1288 g/day and 1250 g/day and 1265 g/day and 1485 g/day and 635 g/day
Intake DM, MPA ([2]; Table 5, mean): 1128 g/day
Intake DM, % (+) increase after infusion of MPA ([2]; Table 5): 38.6% (2×) and 24.5% and 28.8% and 24.9% and 33.5% and 28.6% and 17.9% and 18.0% and 16.2% and 27.5% and 9.6% and 19.6%
Intake DM, % (+) increase after infusion of MPA ([2]; Table 5, mean): 25.1%
response in numbers of rumen fungi to infusion [3, 5]: strong, positive, response
Fungal Zoospores, MPA [3]: 2567 per ml rumen fluid and 7083 per ml rumen fluid and 3050 per ml rumen fluid and 7283 per ml rumen fluid and 1783 per ml rumen fluid and 7250 per ml rumen fluid and 6167 per ml rumen fluid and 4417 per ml rumen fluid and 9017 per ml rumen fluid and 6467 per ml rumen fluid and 11167 per ml rumen fluid and 5383 per ml rumen fluid and 4900 per ml rumen fluid
Fungal Zoospores, MPA ([3]; mean): 5887 per ml rumen fluid
Fungal Zoospores, log (+): log10 increase after infusion of MPA [3]: 2.7 log10 and 2.5 log10 and 2.0 log10 and 2.3 log10 and 0.4 log10 and 0.5 log10 and 0.7 log10 and 0.8 log10 and 0.2 log10 and 0.6 log10 and 1.0 log10 (2×) and 1.1 log10
Fungal Zoospores, log (+): log10 increase after infusion of MPA ([3]; mean): 1.20 log10
Cellutolytic Bacteria, MPA [4]: 6.96 × 10^8 and 0.556 × 10^8 and 4.42 × 10^8 and 1.84 × 10^8 and 2.173 × 10^8 and 3.447 × 10^8 and 1.086 × 10^8 and 0.912 × 10^8 and 3.219 × 10^8 (3×) and 18.37 × 10^8 and 3.22 × 10^8
Cellutolytic Bacteria, MPA ([4]; mean): 4.05 × 10^8
Cellutolytic Bacteria, log (+) [4]: 0.58 log and −0.52 log and 0.38 log and −0.24 log (2×) and 0.07 log and 0.50 log and 0.12 log and 1.76 log and 0.76 log and 1.00 log and 0.62 log and 0.47 log
Cellutolytic Bacteria, log (+) ([4]; mean): 0.40 log
